{"source": "ChEMBL document CHEMBL1141530", "about": "“Synthesis and SAR of 1-acetanilide-4-aminopyrazole-substituted quinazolines: selective inhibitors of Aurora B kinase with potent anti-tumor activity” (Bioorg Med Chem Lett, 2008)", "key": {"[1]": {"system": "Mus musculus", "test": "Inhibition of histone-H3 phosphorylation in human SW620 cells xenografted mouse at 0.5 mg/kg/day, sc after 48 hrs", "assay_type": "functional, organism-based", "settings": "SW-620"}, "[2]": {"system": "SW-620", "test": "Antiproliferative activity against human SW620 cells assessed as inhibition of DNA synthesis after 48 hrs by 2-h BrdU uptake assay", "assay_type": "functional, cell-based"}, "[3]": {"system": "SW-620", "test": "Antitumor activity against human SW620 cells xenografted in mouse assessed as tumor growth inhibition at 50 mg/kg after 24 hrs", "assay_type": "functional", "set-up": "scale not given: the % may be the effect or the level left"}, "[4]": {"system": "SW-620", "test": "Antitumor activity against human SW620 cells xenografted in mouse assessed as reduction in tumor size at 2.5 mg/kg after 48 hrs", "assay_type": "functional, organism-based", "set-up": "dose 2.5 mg/kg"}, "[5]": {"test": "Solubility in tris buffer at pH 9", "assay_type": "physicochemical"}, "[6]": {"system": "Mus musculus", "test": "Inhibition of histone-H3 phosphorylation in human SW620 cells xenografted mouse at 2.5 mg/kg/day, sc after 48 hrs", "assay_type": "functional", "settings": "SW-620, sc, route subcutaneous"}, "[7]": {"target": "Voltage-gated inwardly rectifying potassium channel KCNH2 (Homo sapiens, UniProt Q12809)", "sequence (Q12809 whole entry)": "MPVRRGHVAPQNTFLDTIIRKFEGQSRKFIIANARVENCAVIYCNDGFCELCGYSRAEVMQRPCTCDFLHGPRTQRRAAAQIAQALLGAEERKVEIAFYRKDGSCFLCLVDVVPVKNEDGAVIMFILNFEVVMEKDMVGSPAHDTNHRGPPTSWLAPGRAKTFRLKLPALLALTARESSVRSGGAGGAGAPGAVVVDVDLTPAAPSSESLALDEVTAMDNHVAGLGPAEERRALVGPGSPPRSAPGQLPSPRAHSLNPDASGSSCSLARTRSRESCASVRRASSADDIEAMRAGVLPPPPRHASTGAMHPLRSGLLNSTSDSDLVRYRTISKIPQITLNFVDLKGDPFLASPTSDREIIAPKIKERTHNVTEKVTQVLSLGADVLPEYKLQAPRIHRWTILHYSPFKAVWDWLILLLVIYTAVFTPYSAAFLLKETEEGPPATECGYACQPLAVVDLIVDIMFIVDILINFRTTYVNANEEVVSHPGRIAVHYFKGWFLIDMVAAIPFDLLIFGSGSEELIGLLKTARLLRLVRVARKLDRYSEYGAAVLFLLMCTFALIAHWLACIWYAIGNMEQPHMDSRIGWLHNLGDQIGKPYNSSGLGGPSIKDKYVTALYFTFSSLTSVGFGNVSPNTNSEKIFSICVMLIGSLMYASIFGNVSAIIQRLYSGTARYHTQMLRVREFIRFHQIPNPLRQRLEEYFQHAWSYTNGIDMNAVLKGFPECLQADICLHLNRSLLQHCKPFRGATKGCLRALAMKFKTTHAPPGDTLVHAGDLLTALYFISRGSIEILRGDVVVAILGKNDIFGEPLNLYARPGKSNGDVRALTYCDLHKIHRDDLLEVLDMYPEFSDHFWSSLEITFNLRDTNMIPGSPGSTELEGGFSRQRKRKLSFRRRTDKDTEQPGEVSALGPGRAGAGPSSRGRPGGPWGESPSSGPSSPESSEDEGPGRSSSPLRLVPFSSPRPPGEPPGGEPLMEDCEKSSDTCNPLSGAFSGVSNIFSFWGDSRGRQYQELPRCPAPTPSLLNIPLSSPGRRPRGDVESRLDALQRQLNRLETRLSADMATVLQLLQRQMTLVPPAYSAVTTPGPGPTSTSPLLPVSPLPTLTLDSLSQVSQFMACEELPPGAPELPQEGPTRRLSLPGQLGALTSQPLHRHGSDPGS", "test": "Inhibition of human ERG by automated whole cell electrophysiology"}, "[8]": {"target": "Cytochrome P450 3A4 (Homo sapiens, UniProt P08684)", "sequence (P08684 whole entry)": "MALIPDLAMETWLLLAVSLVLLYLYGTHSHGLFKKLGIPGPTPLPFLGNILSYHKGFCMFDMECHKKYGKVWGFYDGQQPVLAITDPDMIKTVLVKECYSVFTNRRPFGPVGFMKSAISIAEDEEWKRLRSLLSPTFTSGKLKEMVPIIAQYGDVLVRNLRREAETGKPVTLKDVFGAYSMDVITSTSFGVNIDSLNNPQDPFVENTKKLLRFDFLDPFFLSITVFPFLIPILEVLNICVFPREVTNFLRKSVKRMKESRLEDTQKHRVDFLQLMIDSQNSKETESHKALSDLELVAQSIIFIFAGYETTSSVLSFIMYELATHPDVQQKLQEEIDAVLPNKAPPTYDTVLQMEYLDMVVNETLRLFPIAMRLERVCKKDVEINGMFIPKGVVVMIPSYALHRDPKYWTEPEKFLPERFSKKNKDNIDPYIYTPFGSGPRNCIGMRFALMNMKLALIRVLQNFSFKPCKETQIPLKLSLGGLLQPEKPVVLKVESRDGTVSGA", "test": "Inhibition of human CYP3A4", "assay_type": "ADME"}}, "note": "Active and inactive are the calls of the source. The rule behind the calls is not given here.", "data": [{"smiles": "O=C(Cn1cc(Nc2ncnc3cc(OCCCN4CCC[C@@H]4COP(=O)(O)O)ccc23)cn1)Nc1cccc(F)c1F", "values": [{"measurement": "Activity", "setting": "[1]", "value": "Active"}, {"measurement": "IC50", "setting": "[2]", "value": "< 0.001", "unit": "µM"}, {"measurement": "Activity", "setting": "[3]", "value": 89, "unit": "%"}, {"measurement": "Activity", "setting": "[4]", "value": "Active"}, {"measurement": "solubility", "setting": "[5]", "value": 10000, "unit": "µg/mL"}, {"measurement": "inhibition in vivo at 2.5 mg/kg/day", "setting": "[6]", "value": 75, "unit": "%"}, {"measurement": "IC50", "setting": "[7]", "value": "> 100", "unit": "µM"}, {"measurement": "IC50", "setting": "[8]", "value": 6.1, "unit": "µM"}]}]}
